Test results from US9795687B2, “Modularly assembled small molecules for the treatment of myotonic dystrophy type 1” (The Scripps Research Institute, priority 2013, dated 2017).
Read-outs that look alike come from different tables or passages of the source. Values belong to the molecule of their own block, whether it stands above or below them.

Columns and labels:
[1] = test system: pronase; assay: Proteolytic stability against pronase digestion (HPLC); format: in vitro ADME, Streptomyces griseus K-1; parameters: key to Pronase Degradation (pH 7.8) / Pronase Degradation (pH 9): +: Pronase stable; ++: Intermediate Pronase stability; +++: Pronase unstable; details: for Pronase Degradation (pH 7.8): pH 7.8, 37° C.; for Pronase Degradation (pH 7.8) / Pronase Degradation (pH 9): 18 h, 400 μM compound; for Pronase Degradation (pH 9): pH 9.0, 37° C.
Description: Proteolytic stability of second and third generation compounds was assessed using pronase as previously described.^3 Pronase is a group of≧10 proteases isolated from Streptomyces griseus K-1. As such, proteolytic degradation was measured at two pH's, 7.8 and 9.0. Briefly, promise (1 unit) was added to the compound of interest (400 μM in 40 μL) in 1X Digestion Buffer (50 mM Tris-HCl, pH 7.8 or 9.0, and 10 mM CaCl2), and the reaction was incubated at 37° C. for 18 h. Reactions were quenched by addition of 4 μL of 25% acetic acid, and the products of the pronase digestion were analyzed by HPLC. A linear gradient of 0-100% methanol in H2O with 0.1% (v/v) TFA and a flow rate of 1 mL/min were employed.

[2] = test system: r(CUG)12; assay: SPR binding kinetics to r(CUG)12; details: for koff (1): SD ≦±10%; for koff (1) / kon (1): two component fit for dimers, one component for H monomer and MBNL1
Description: The binding of 2H-K4NMe to various RNAs including r(CUG)12, r(CAG)12, r(AU)12 and r(GC)δ was studied by surface plasmon resonance (SPR) spectrometry. […] In summary, 2H-K4NMe is selective for r(CUG)12 by ˜30-100-fold over the other RNAs studied (Table 2). In general, it has a faster association rate (kon) and a slower dissociation rate (koff) when binding to r(CUG)12 compared to the other RNAs.
On rates, off rates and Kobs values were measured using a ForteBio OctetRed spectrophotometer and Streptavidin SA dip-and-read biosensors (ForteBio). Sensors were pre-equilibrated in 1X Kinetics Buffer (ForteBio) prior to beginning measurements. 5′-Biotinylated r(CUG)12 was folded by heating in 1X Kinetics Buffer at 60° C. for 5 min followed by slow cooling to room temperature on the bench top. Measurements were completed by incubating sensors sequentially in 200 μL of: 1X Kinetics Buffer, 540 nM 5′-biotinylated RNA, 1X Kinetics Buffer, compound of interest or MBNL1 (varying concentrations; seven 1:2 dilutions in 1X Kinetics Buffer), and finally 1X Kinetics Buffer. Data were fit using ForteBio's Data Analysis 7.0 software. MBNL1 and II (monomer) data were fit using a 1:1 model. This model fits one analyte in solution binding to one binding site on the surface. 2H-K4NMe and 2H-4 data were fit using a 2:1 heterogeneous ligand model. This model fits the binding of one analyte in solution to two different binding sites on the surface. Kinetic parameters are calculated for both interactions.

[3] = r(CUG)12, two component binding isotherm

Molecule: C[C@@H](C(=O)N(C)[C@@H](C)C(=O)N(C)[C@@H](C)C(=O)NCCNC(=O)CCCOc1cccc(-c2nc3cc(-c4nc5cc(N6CCN(C)CC6)ccc5[nH]4)ccc3[nH]2)c1)N(C)C(=O)CCCOc1cccc(-c2nc3ccc(-c4nc5cc(N6CCN(C)CC6)ccc5[nH]4)cc3[nH]2)c1 [Compound 2H-3NMe]
Pronase Degradation (pH 7.8) [1]: +++
susceptibility to pronase digestion ([1]; pH 7.8 and pH 9.0 for 18 h): completely degraded
Pronase Degradation (pH 9) [1]: +++

Molecule: CCCN(C(=O)CCCOc1cccc(-c2nc3ccc(-c4nc5cc(N6CCN(C)CC6)ccc5[nH]4)cc3[nH]2)c1)[C@H](C)C(=O)N(CCC)[C@H](C)C(=O)N(CCC)[C@H](C)C(=O)NCCNC(=O)CCCOc1cccc(-c2nc3cc(-c4nc5cc(N6CCN(C)CC6)ccc5[nH]4)ccc3[nH]2)c1 [Compound 2H-3NPr]
Pronase Degradation (pH 7.8) [1]: ++
Pronase Degradation (pH 9) [1]: ++

Molecule: C[C@@H](C(=O)N(C)[C@@H](C)C(=O)N(C)[C@@H](C)C(=O)N(C)[C@@H](C)C(=O)N(CCCCN(C)C(=O)CCCOc1cccc(-c2nc3ccc(-c4nc5cc(N6CCN(C)CC6)ccc5[nH]4)cc3[nH]2)c1)CC(N)=O)N(C)C(=O)CCCOc1cccc(-c2nc3ccc(-c4nc5cc(N6CCN(C)CC6)ccc5[nH]4)cc3[nH]2)c1 [Compound 2H-K4NMeS]
koff (1) ([2]; r(CUG)12): 0.06 s⁻¹
Kd ([2]; r(CUG)12, read-out: Kobs (1)): 2.2 µM
koff (2) [2, 3]: 0.042 s⁻¹
kon (2) [2, 3]: 144000 M⁻¹ s⁻¹
kon (1) ([2]; r(CUG)12): 27300 M⁻¹ s⁻¹

The next lines start with results.

binding to r(CUG)12, fold weaker than 2H-K4NMe [2]: 15 fold
koff (1) ([2]; r(CUG)12): 0.0369 s⁻¹
Kd ([2]; r(CUG)12, read-out: Kobs (1)): 2.1 µM
kon (1) ([2]; r(CUG)12): 17600 M⁻¹ s⁻¹
Kd ([2]; read-out: Kd for binding r(CUG)12): 2 µM
Molecule: CN1CCN(c2ccc3[nH]c(-c4ccc5[nH]c(-c6cccc(OCCCC(=O)O)c6)nc5c4)nc3c2)CC1 [H monomer, reference compound]

koff (1) ([2]; r(CUG)12): 0.00203 s⁻¹
kon (1) ([2]; r(CUG)12): 3280 M⁻¹ s⁻¹
B1: MBNL1: muscleblind-like 1 protein, pre-mRNA splicing regulator that binds r(CUG)^exp (protein, UniProt Q9NR56 1-388, looked up)
Muscleblind-like protein 1: MAVSVTPIRDTKWLTLEVCREFQRGTCSRPDTECKFAHPSKSCQVENGRVIACFDSLKGRCSRENCKYLHPPPHLKTQLEINGRNNLIQQKNMAMLAQQMQLANAMMPGAPLQPVPMFSVAPSLATNASAAAFNPYLGPVSPSLVPAEILPTAPMLVTGNPGVPVPAAAAAAAQKLMRTDRLEVCREYQRGNCNRGENDCRFAHPADSTMIDTNDNTVTVCMDYIKGRCSREKCKYFHPPAHLQAKIKAAQYQVNQAAAAQAAATAAAMTQSAVKSLKRPLEATFDLGIPQAVLPPLPKRPALEKTNGATAVFNTGIFQYQQALANMQLQQHTAFLPPVPMVHGATPATVSAATTSATSVPFAATATANQIPIISAEHLTSHKYVTQM
Kd ([2]; r(CUG)12, read-out: Kobs (1)): 0.619 µM
